From US20190015551A1, “CONSTRUCT FOR PREVENTING IMMUNOLOGICAL REJECTION GENERATED WHEN USED IN TRANSPLANTS, AND METHOD FOR USING COLLAGEN IN A GEL STATE, IN THE FORM OF DRY LYOPHILISED SPONGY MOULDINGS AND 3D MATRICES” (ADG I+D SPA, priority 2015, published 2019)

System: bacterial colonies in pig tissue
Assay: Microbiological control of pig tissue treated with disinfectants (CFU/plate)
Assay type: cell-based
Description: FIG. 3. It is shown the microbiological control of tissue for obtaining the collagen product, by means of the methodology described in the present application. It corresponds to CFU/plate in pig tissue treated with povidone-iodine or peracetic acid. […] Abbreviations: PY—povidone-iodine, PA—Peracetic Acid, CFU—colony forming units, CC—work bell control.
FIG. 4. It is shown results of microbiological control. The photographs of the culture plates show the initial growth of bacterial colonies at the beginning (time 0), and the decrease of CFU at 5 minutes, 30 minutes, 1 hour and 3 hours of exposure to the disinfectant; in the top panel povidone-iodine (PY) and in the lower panel peracetic acid (PA).
• i) Sterilization and freezing of the tissue: Pig's head cheeks skin from 175 to 190 days of age were used. Which was immersed for 3.5 hours in a commercial solution of povidone-iodine 10% (Brand: Centrovet) and brushed on both sides every 30 minutes, in a sterile environment, and rinsed with ultra-pure quality water. […] The disinfected tissue is bagged and sealed to freeze at −80° C. (±2.0° C.) in ultra freezer (Brand: Thermoline).

SMILES: CC(=O)OO [PA, peracetic acid]
- formation of bacterial colonies on culture plates (3 hours of exposure to the disinfectant): the presence of a colony still persists
- UCF/plate in pig tissue treated with PY or PA (exposition time 0 min): 132 UCF/plate
- UCF/plate in pig tissue treated with PY or PA (exposition time 5 min): 2 UCF/plate
- UCF/plate in pig tissue treated with PY or PA (exposition time 30 min): 3 UCF/plate
- UCF/plate in pig tissue treated with PY or PA (exposition time 1 hour): 7 UCF/plate
- UCF/plate in pig tissue treated with PY or PA (exposition time 3 hours): 1 UCF/plate
